From patent US8404683B2, “Inhibitors of the interaction between MDM2 and P53” (Janssen Pharmaceutical N.V., priority 2004, dated 2013)

What follows are molecules tested on U87MG cells (assay: Proliferation assay (MTT-based) on U87MG tumour cells). Conditions: Homo sapiens, U-87 MG, 96 h, 4 days of incubation, negative log value of the IC50-value, read-out: cell proliferation pIC50 (converted).
Description: U87MG cells are human glioblastoma cells with wild type p53. In this cell line MDM2 tightly controls p53 expression.
Cellular activity of the compounds of formula (I) was determined on U87MG tumour cells using a colorimetric assay for cell toxicity or survival (see example C.2).
All compounds tested were dissolved in DMSO and further dilutions were made in culture medium. Final DMSO concentrations never exceeded 0.1% (v/v) in cell proliferation assays. Controls contained U87MG cells and DMSO without compound and blanks contained DMSO but no cells.
U87MG cells were seeded in 96-well cell culture plates at 3000 cells/well/100 μl. 24 hours later, medium was changed and compound and/or solvent were added to a final volume of 200 μl. Following 4 days of incubation, medium was replaced by 200 μl fresh medium and cell growth was assessed using a MTT-based assay. Therefore, 25 μl of the MTT solution (0.5% MTT research grade from Serva in phosphate-buffered saline) was added to each well and the cells were further incubated for 2 hours at 37° C. The medium was then carefully aspirated and the blue MTT-formazan product was dissolved by adding to each well 25 μl 0.1 M glycin and 100 μl DMSO. The plates were shaken for another 10 min on a micro plate shaker before reading absorbance at 540 nm by a Biorad micro plate reader.
Within an experiment, the results for each experimental condition are the mean of 3 replicate wells. For initial screening purposes, compounds were tested at a single fixed concentration of 10^−5 M. For active compounds, the experiments were repeated to establish full concentration-response curves. For each experiment, controls (containing no drug) and a blank incubation (containing no cells or drugs) were run in parallel. The blank value was subtracted from all control and sample values. For each sample, the mean value for cell growth (in absorbance units) was expressed as a percentage of the mean value for cell growth of the control. When appropriate, IC50-values (concentration of the drug, needed to reduce cell growth to 50% of the control) were computed using probit analysis for graded data (Finney, D. J., Probit Analyses, 2nd Ed. Chapter 10, Graded Responses, Cambridge University Press, Cambridge 1962). Herein the effects of test compounds are expressed as pIC50 (the negative log value of the IC50-value) (see table F-2).

Structure (SMILES)	IC50
COCC(O)C1CCN(C(=O)C(Cc2c[nH]c3ccccc23)Nc2ccc(Nc3ccncc3)cc2)CC1 (stereo not shown) [Compound 223]	794 nM
c1ccc(CNCc2cc(Nc3ccc(NCCc4c[nH]c5ccccc45)cc3)ccn2)cc1 [Compound 168]	2000 nM
CCOc1cc(Nc2ccncc2)ccc1NCCc1c[nH]c2cc(OC)ccc12 [Compound 177]	50.1 nM
CCOCc1cc(Nc2ccc(NCCc3c[nH]c4ccccc34)cc2)ccn1 [Compound 134]	1260 nM
O=c1cc(Nc2ccc(NCCc3c[nH]c4ccccc34)cc2)cc[nH]1 [Compound 173]	> 10000 nM
c1ccc2c(CCNc3ccc(Nc4ccnc(CNCCN5CCOCC5)c4)cc3)c[nH]c2c1 [Compound 153]	2510 nM
CN(c1ccncc1)c1ccc(NCCc2c[nH]c3ccccc23)cc1 [Compound 83]	3160 nM
COC(=O)CCOCc1cc(Nc2ccc(NCCc3c[nH]c4ccccc34)cc2)ccn1 [Compound 172]	> 10000 nM
CCOc1cc(Nc2ccnc3ccccc23)ccc1NCCc1c[nH]c2ccccc12 [Compound 35]	39.8 nM
CC(NCCCc1ccccc1)c1cc(Nc2ccc(NCCc3c[nH]c4ccccc34)cc2)ccn1 (stereo not shown) [Compound 148]	3160 nM
OCCOCc1cc(Nc2ccc(NCCc3c[nH]c4ccccc34)cc2)ccn1 [Compound 99]	2510 nM
CC(=O)NCc1cc(Nc2ccc(NCCc3c[nH]c4ccccc34)cc2)ccn1 [Compound 206]	3160 nM
c1ccc(CCCOCc2cc(Nc3ccc(NCCc4c[nH]c5ccccc45)cc3)ccn2)cc1 [Compound 171]	> 10000 nM
Clc1cccc2[nH]cc(CCNc3ccc(Nc4ccncc4)cc3)c12 [Compound 186]	1000 nM
Cn1cc(CCNc2ccc(Nc3ccnc4ccccc34)cc2)c2ccccc21 [Compound 28]	200 nM
Clc1ccc2c(CCNc3ccc(Nc4ccncc4)cc3)c[nH]c2c1 [Compound 50]	100 nM
CC(C)(C)OC(=O)N(CCc1cn(C(=O)OC(C)(C)C)c2ccccc12)c1ccc(Nc2ccncc2)cc1 [Compound 226]	3160 nM
c1ccc2c(CNCc3ccc(Nc4ccncc4)cc3)c[nH]c2c1 [Compound 79]	2510 nM
OCc1cc(Nc2ccc(NCCc3c[nH]c4ccccc34)cc2)c2ccccc2n1 [Compound 14]	39.8 nM
O=C(NCc1cc(Nc2ccc(NCCc3c[nH]c4ccccc34)cc2)ccn1)C1CC1 [Compound 130]	1580 nM
Cc1noc(-c2cc(Nc3ccc(NCCc4c[nH]c5ccccc45)cc3)ccn2)n1 [Compound 106]	1580 nM
CCNCc1cc(Nc2ccc(NCCc3c[nH]c4ccccc34)cc2)ccn1 [Compound 155]	2000 nM
CCOc1cc(Nc2ccnc3c2CCCC3O)ccc1NCCc1c[nH]c2cc(OC)ccc12 (stereo not shown) [Compound 197]	251 nM
COC(=O)CCNCc1cc(Nc2ccc(NCCc3c[nH]c4ccccc34)cc2)ccn1 [Compound 96]	> 10000 nM
c1ccc2c(CCCNCc3ccc(Nc4ccncc4)cc3)c[nH]c2c1 [Compound 72]	2000 nM

Structure (SMILES)	IC50
c1cncc(Nc2ccc(NCc3c[nH]c4ccccc34)cc2)c1 [Compound 78]	10000 nM
CN(C)Cc1cc(Nc2ccc(NCCc3c[nH]c4ccccc34)cc2)ccn1 [Compound 158]	> 10000 nM
OCCc1cc(Nc2ccc(NCCc3c[nH]c4ccccc34)cc2)ccn1 [Compound 51]	316 nM
Cc1cc(Nc2ccc(NCCc3c[nH]c4ccccc34)cc2)ccn1 [Compound 46]	251 nM
c1ccc2c(CCCN(CCCc3c[nH]c4ccccc34)Cc3ccc(Nc4ccncc4)cc3)c[nH]c2c1 [Compound 73]	501 nM
Cc1cnccc1Cc1cnccc1Nc1ccc(NCCc2c[nH]c3ccccc23)cc1 [Compound 125]	3980 nM
COCC1(O)CCN(C(=O)C(Cc2c[nH]c3ccccc23)Nc2ccc(Nc3ccncc3)cc2)CC1 (stereo not shown) [Compound 222]	3980 nM
COc1ccc2c(CCNc3ccc(Nc4ccnc5c4CCC5O)cc3)c[nH]c2c1 (stereo not shown) [Compound 196]	200 nM
O=C(O)Cc1cc(Nc2ccc(NCCc3c[nH]c4ccccc34)cc2)ccn1 [Compound 70]	251 nM
CC(C)C(O)c1cc(Nc2ccc(NCCc3c[nH]c4ccccc34)cc2)ccn1 (stereo not shown) [Compound 137]	3160 nM
c1ccc(CCCNCc2cc(Nc3ccc(NCCc4c[nH]c5ccccc45)cc3)ccn2)cc1 [Compound 164]	2510 nM
CC(NCCO)c1cc(Nc2ccc(NCCc3c[nH]c4ccccc34)cc2)ccn1 (stereo not shown) [Compound 147]	5010 nM
CN(C)CCNCc1cc(Nc2ccc(NCCc3c[nH]c4ccccc34)cc2)ccn1 [Compound 59]	398 nM
COc1cccc2[nH]cc(CCNc3ccc(Nc4ccncc4)cc3)c12 [Compound 191]	3160 nM
c1cncc(Nc2cccc(NCCc3c[nH]c4ccccc34)c2)c1 [Compound 76]	> 10000 nM
N#Cc1ccc2nccc(Nc3ccc(NCCc4c[nH]c5ccccc45)cc3)c2c1 [Compound 29]	251 nM
CC(=O)c1cc(Nc2ccc(NCCc3c[nH]c4ccccc34)cc2)ccn1 [Compound 105]	7940 nM
CCOC(C)c1cc(Nc2ccc(NCCc3c[nH]c4ccccc34)cc2)ccn1 (stereo not shown) [Compound 149]	2000 nM
OCCCNCc1cc(Nc2ccc(NCCc3c[nH]c4ccccc34)cc2)ccn1 [Compound 156]	3160 nM
Cc1cc(Nc2ccc(NCCc3c[nH]c4ccccc34)cc2)c2ccccc2n1 [Compound 12]	12.6 nM
CN(CCO)C(=O)C(Cc1c[nH]c2ccccc12)Nc1ccc(Nc2ccncc2)cc1 (stereo not shown) [Compound 213]	> 10000 nM
Cc1ccc2[nH]cc(CCNc3ccc(Nc4ccncc4)cc3)c2c1 [Compound 185]	2000 nM
OCc1cc(Nc2ccc(NCCc3c[nH]c4cc(F)ccc34)cc2)ccn1 [Compound 193]	1000 nM
CCOC(=O)/C=C/c1cnccc1Nc1ccc(NCCc2c[nH]c3ccccc23)cc1 [Compound 126]	> 10000 nM
COc1ccc2nc(C)cc(Nc3ccc(NCCc4c[nH]c5ccccc45)cc3)c2c1 [Compound 20]	100 nM

Structure (SMILES)	IC50
COc1cccc2c(Nc3ccc(NCCc4c[nH]c5ccccc45)cc3)ccnc12 [Compound 21]	10 nM
Nc1cccc2c(Nc3ccc(NCCc4c[nH]c5ccccc45)cc3)ccnc12 [Compound 25]	39.8 nM
c1ccc2c(c1)NCC2CCNc1ccc(Nc2ccnc3ccccc23)cc1 (stereo not shown) [Compound 34]	50.1 nM
CCC(O)c1cc(Nc2ccc(NCCc3c[nH]c4ccccc34)cc2)ccn1 (stereo not shown) [Compound 203]	3160 nM
OCCNCc1cc(Nc2ccc(NCCc3c[nH]c4ccccc34)cc2)ccn1 [Compound 152]	10000 nM
c1ccc2c(CCNc3ccc(Nc4ccnc(CNCCN5CCNCC5)c4)cc3)c[nH]c2c1 [Compound 95]	7940 nM
O=C(C(Cc1c[nH]c2ccccc12)Nc1ccc(Nc2ccncc2)cc1)N1CCC(CO)CC1 (stereo not shown) [Compound 224]	3980 nM
COC(=O)c1cc(Nc2ccc(NCCc3c[nH]c4ccccc34)cc2)cc(C(=O)OC)n1 [Compound 109]	> 10000 nM
OC(c1ccccc1)c1cc(Nc2ccc(NCCc3c[nH]c4ccccc34)cc2)ccn1 (stereo not shown) [Compound 57]	794 nM
CC(C)(C)OC(=O)N(CCc1cn(C(=O)OC(C)(C)C)c2ccccc12)c1ccc(Nc2ccnc(Cl)c2)cc1 [Compound 102]	> 10000 nM
O=[N+]([O-])c1cccc2c(Nc3ccc(NCCc4c[nH]c5ccccc45)cc3)ccnc12 [Compound 23]	398 nM
COCc1cc(Nc2ccc(NCCc3c[nH]c4ccccc34)cc2)ccn1 [Compound 64]	398 nM
NC(=O)C(Cc1c[nH]c2ccccc12)Nc1ccc(Nc2ccnc3ccccc23)cc1 (stereo not shown) [Compound 18]	501 nM
O=C(NCCCCCO)C(Cc1c[nH]c2ccccc12)Nc1ccc(Nc2ccncc2)cc1 (stereo not shown) [Compound 118]	> 10000 nM
Cc1ccc2c(CCNc3ccc(Nc4ccncc4)cc3)c[nH]c2c1 [Compound 183]	501 nM
Clc1cccc(CC(CNc2ccc(Nc3ccncc3)cc2)c2c[nH]c3ccccc23)c1 (stereo not shown) [Compound 199]	2000 nM
COc1ccc2[nH]cc(CCNc3ccc(Nc4ccncc4)cc3)c2c1 [Compound 62]	2510 nM
Clc1ccc2c(CCNc3ccc(Nc4ccnc5ccccc45)cc3)c[nH]c2c1 [Compound 26]	100 nM
N#Cc1cc(Nc2ccc(NCCc3c[nH]c4ccccc34)cc2)ccn1 [Compound 86]	> 10000 nM
OC1CCc2c(Nc3ccc(NCCc4c[nH]c5ccccc45)cc3)ccnc21 (stereo not shown) [Compound 110]	10 nM
NC(=O)C(Cc1c[nH]c2ccccc12)Nc1ccc(Nc2ccncc2)cc1 (stereo not shown) [Compound 65]	> 10000 nM
O=C(C(Cc1c[nH]c2ccccc12)Nc1ccc(Nc2ccncc2)cc1)N(CCCCO)Cc1ccccc1 (stereo not shown) [Compound 207]	794 nM
Cc1cc(Nc2ccc(NCCc3c[nH]c4ccccc34)cc2)c2cc(CO)ccc2n1 [Compound 19]	200 nM
